Measurements as given in patent US20260035384A1, “COMPOUND CONTAINING CYCLOHEXYL” (CHIA TAI TIANQING PHARMACEUTICAL GROUP CO., LTD., priority 2022, published 2026).

What was measured:
AR in LNCaP cells = biological target: T1, AR in LNCaP cells (Homo sapiens, UniProt P10275, T878A); assay: Assay on degradation activity for AR in LNCaP cells (HTRF human androgen receptor detection kit); format: cell-based; details: 24 h incubation
T1 construct: Assay on Degradation Activity for AR in LNCaP Cells; endogenous in cells; host or cells: LNCaP cells
T1 sequence (P10275 1-920 T878A): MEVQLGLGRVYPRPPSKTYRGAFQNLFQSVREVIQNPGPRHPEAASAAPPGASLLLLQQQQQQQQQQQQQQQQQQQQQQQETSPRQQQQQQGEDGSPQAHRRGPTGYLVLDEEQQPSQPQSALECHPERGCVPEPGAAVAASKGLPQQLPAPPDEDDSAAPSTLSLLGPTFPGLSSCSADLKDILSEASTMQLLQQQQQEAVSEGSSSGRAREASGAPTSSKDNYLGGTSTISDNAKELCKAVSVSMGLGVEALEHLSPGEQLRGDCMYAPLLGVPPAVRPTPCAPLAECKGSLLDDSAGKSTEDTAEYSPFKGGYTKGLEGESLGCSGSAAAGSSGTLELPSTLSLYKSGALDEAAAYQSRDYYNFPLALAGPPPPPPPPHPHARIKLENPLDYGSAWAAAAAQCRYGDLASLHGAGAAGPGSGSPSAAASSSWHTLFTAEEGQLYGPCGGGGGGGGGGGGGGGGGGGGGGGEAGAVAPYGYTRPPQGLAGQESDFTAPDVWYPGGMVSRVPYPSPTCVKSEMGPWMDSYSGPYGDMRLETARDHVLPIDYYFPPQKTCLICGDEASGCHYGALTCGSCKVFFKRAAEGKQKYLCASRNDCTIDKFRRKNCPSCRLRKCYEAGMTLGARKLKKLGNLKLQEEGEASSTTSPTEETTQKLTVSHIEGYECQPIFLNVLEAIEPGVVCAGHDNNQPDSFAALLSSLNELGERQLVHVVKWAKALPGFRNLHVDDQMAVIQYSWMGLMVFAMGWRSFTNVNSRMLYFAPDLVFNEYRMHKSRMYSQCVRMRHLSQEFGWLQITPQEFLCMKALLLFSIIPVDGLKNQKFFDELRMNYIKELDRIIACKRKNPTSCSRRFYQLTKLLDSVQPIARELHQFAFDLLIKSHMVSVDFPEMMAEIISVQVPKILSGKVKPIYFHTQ
Procedure, shortened: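 LNCaP cells seeded in 2% CSS-FBS phenol red-free 1640 medium overnight, then treated in duplicate with 500 nM–0.488 nM compound for 24 h. AR in lysates quantified by HTRF (Eu cryptate/d2 antibodies, 2 h, 25 °C, 665/620 nm); DC50 and Dmax from four-parameter fits.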

VCaP cells = assay: Assay on inhibitory activity for VCaP cell proliferation (CCK-8); format: cell-based; details: Homo sapiens, 168 h incubation
Procedure, shortened: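 VCaP cells seeded at 1×10^5 cells/mL in phenol red-free DMEM with 5% charcoal-stripped FBS, treated in duplicate at 10000–0.61 nM final. After 168 h incubation, viability was read with CCK-8.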

[1] = In vitro stability in liver microsome; format: in vitro ADME; details: human liver microsome 0.5 mg/mL, NADPH, 37° C.
Experimental: Liver microsome incubation samples (species: human, monkey, rat, and mouse) were prepared by mixing a PBS buffer (pH=7.4), a liver microsome solution (0.5 mg/mL), a test compound, and an NADPH+MgCl2 solution and incubated at 37° C. and 300 rpm for 1 h. Zero-hour samples were prepared by mixing a PBS buffer (pH=7.4), a liver microsome solution (0.5 mg/mL), and a test compound. An acetonitrile solution containing an internal standard was added to the samples, and supernatants were prepared by protein precipitation, diluted, and then assayed by LC/MS/MS.

N#Cc1ccc(O[C@H]2CC[C@H](NC(=O)c3ccc(C4CCN(C5CN(c6cc7onc(C8CCC(=O)NC8=O)c7c7ccccc67)C5)CC4)nn3)CC2)cc1Cl (stereo partly shown) [Compound 48]
DC50 (AR in LNCaP cells; HTRF): ≤ 20 nM
Dmax (AR in LNCaP cells; maximum degradation rate): > 80%
IC50 (VCaP cells): < 100 nM
Human liver microsome Residuals at 60 min (%) [1]: >85%
